From ChEMBL document CHEMBL1201862, “PubChem BioAssay data set” (2004) come the findings set out here.

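A five-concentration, 48-hour dose response in 96-well plates underlies each endpoint, interpolated linearly between surrounding concentrations. GI50: concentration for 50% inhibition of growth.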 Active and inactive are the calls of the source. Cut-off read from the data, not from the text of the source: active = GI50 up to about 1.1 µM and inactive = higher.

Among the test systems are 786-0; CAKI-1; CCRF-CEM; IGROV-1; K562; KM12; MDA-N; OVCAR-3; PC-3; RPMI-8226; SF-268; SF-295; SK-MEL-2; SK-MEL-5; SR; T47D; UO-31; M14; OVCAR-4.
Experiment in all cases: NCI anticancer screen, dose series, 48 h

For `COC(=O)[C@H]1CO[C@@H](C(C)(C)C)N1C(=O)N1C=CC(=O)C[C@@H]1C`, the GI50 in the assay with 786-0, in the assay with CAKI-1, in the assay with CCRF-CEM, in the assay on IGROV-1, with K562 and in the assay on KM12 was > 100 µM (inactive) each time. Moreover, the GI50 with MDA-N, with OVCAR-3, with PC-3, with RPMI-8226, in the assay with SF-268 and in the assay on SF-295 was > 100 µM (inactive) throughout. Besides, the GI50 in the assay on SK-MEL-2, in the assay on SK-MEL-5, in the assay with SR, in the assay with T47D and in the assay with UO-31 was > 100 µM (inactive) each time.

On to `CCOC(=O)N1N=C(/C(C)=N/OC)C(C)[S+]1[O-]` (stereo not drawn), for which the GI50 with 786-0, in the assay with CAKI-1, with CCRF-CEM, in the assay on IGROV-1, in the assay on K562 and with KM12 was > 100 µM (inactive) each time. Also, the GI50 with M14, with MDA-N, in the assay on OVCAR-3, in the assay with OVCAR-4, with PC-3 and in the assay on RPMI-8226 was > 100 µM (inactive) throughout. Moreover, the GI50 with SF-268, with SF-295, with SK-MEL-2, in the assay on SK-MEL-5, in the assay on SR and in the assay on T47D was > 100 µM (inactive) each time. Besides, the GI50 in the assay with UO-31 is > 100 µM (inactive).

For `c1ccc(CN2CCN3CCN(CC2)CCN(Cc2ccccc2)CC3)cc1`, the GI50 is 4.57 µM (inactive) in the assay with 786-0; 30.3 µM (inactive) in the assay on CAKI-1; 6.37 µM (inactive) in the assay on CCRF-CEM; 7.23 µM (inactive) with IGROV-1; 4 µM (inactive) in the assay with K562; 3.33 µM (inactive) in the assay with KM12. Also, the GI50 is 5.51 µM (inactive) in the assay on M14; 3.3 µM (inactive) in the assay with MDA-N; 7.91 µM (inactive) with OVCAR-3; 4.04 µM (inactive) with OVCAR-4; 4.97 µM (inactive) in the assay on PC-3; 2.14 µM (inactive) in the assay with RPMI-8226. Further, the GI50 with SF-268 was 11.6 µM (inactive); with SF-295 it was 21.9 µM (inactive); with SK-MEL-2, 2.82 µM (inactive); with SK-MEL-5, 1.98 µM (inactive); in the assay on SR it was 4.08 µM (inactive); in the assay with T47D it was 4.08 µM (inactive). In addition, in the assay on UO-31, the GI50 is 31.7 µM (inactive).

On to `Cc1ccc2c(c1C)-c1c(ccc(C)c1C)C(=O)C2=O`, for which the GI50 was 0.358 µM (active) with 786-0; 0.662 µM (active) with CAKI-1; 0.238 µM (active) in the assay with CCRF-CEM; 0.357 µM (active) in the assay with IGROV-1; 0.266 µM (active) with K562; 0.165 µM (active) in the assay with KM12. Moreover, the GI50 with M14 was 0.679 µM (active); in the assay with MDA-N, 0.173 µM (active); with OVCAR-3, 0.296 µM (active); in the assay with OVCAR-4 it was 0.0459 µM (active); with PC-3, 0.265 µM (active); with RPMI-8226, 0.193 µM (active). In addition, the GI50 in the assay with SF-268 was 0.385 µM (active); in the assay on SF-295, 0.59 µM (active); in the assay on SK-MEL-2, 1.19 µM (inactive); in the assay with SK-MEL-5 it was 0.367 µM (active); in the assay on SR it was 0.107 µM (active); with T47D, 1.81 µM (inactive). Moreover, the GI50 with UO-31 was 0.625 µM (active).

In the case of `CN(C)CCOC1(CC2CCCCC2)CCC(C(C)(C)C)CC1` (stereo not drawn), the GI50 is 2.48 µM (inactive) in the assay with 786-0; 6.62 µM (inactive) in the assay on CAKI-1; 2 µM (inactive) in the assay on CCRF-CEM; 8.71 µM (inactive) with IGROV-1; 2.04 µM (inactive) in the assay on K562; 4.27 µM (inactive) with KM12. In addition, the GI50 in the assay with M14 was 2.14 µM (inactive); with MDA-N it was 4.25 µM (inactive); in the assay with OVCAR-3, 7.53 µM (inactive); with OVCAR-4 it was 6.61 µM (inactive); in the assay on PC-3 it was 4.1 µM (inactive); in the assay with RPMI-8226 it was 2.02 µM (inactive). Moreover, the GI50 is 10.5 µM (inactive) with SF-268; 4.32 µM (inactive) in the assay with SF-295; 6.44 µM (inactive) in the assay with SK-MEL-2; 2.3 µM (inactive) in the assay on SK-MEL-5; 1.69 µM (inactive) in the assay on SR; 3.34 µM (inactive) in the assay on T47D. Besides, the GI50 with UO-31 was 2.69 µM (inactive).

For `COc1ccc(-c2nc3cc(C(F)(F)F)ccc3n2CC2CCCN3CCCCC23)cc1` (stereo not drawn), the GI50 in the assay on 786-0 was 19.5 µM (inactive); in the assay on CAKI-1 it was 21 µM (inactive); in the assay with CCRF-CEM it was 13.6 µM (inactive); with IGROV-1 it was 13.9 µM (inactive); in the assay with K562 it was 14.8 µM (inactive); in the assay with KM12 it was 19.4 µM (inactive). For the same molecule, the GI50 in the assay on M14 is 13 µM (inactive); in the assay on MDA-N, 19.3 µM (inactive); with OVCAR-3, 16.1 µM (inactive); with OVCAR-4, 17.1 µM (inactive); in the assay with PC-3, 13.6 µM (inactive); with RPMI-8226, 14.2 µM (inactive). The GI50 was 15.3 µM (inactive) with SF-268; 19.2 µM (inactive) in the assay with SF-295; 15.5 µM (inactive) in the assay with SK-MEL-2; 14.4 µM (inactive) with SK-MEL-5; 13.3 µM (inactive) with SR; 18.5 µM (inactive) with T47D. Moreover, the GI50 in the assay with UO-31 is 17.1 µM (inactive).

On to `O=[N+]([O-])C(=C(N1CCCCC1)N1CCCCC1)/C(Cl)=C(\Cl)[N+](=O)[O-]`, for which the GI50 in the assay with 786-0 was 3.42 µM (inactive); in the assay on CAKI-1, 1.19 µM (inactive); in the assay with CCRF-CEM it was 5.11 µM (inactive); with IGROV-1 it was 1.72 µM (inactive); in the assay with K562 it was 1 µM (active); in the assay with KM12, 19.4 µM (inactive). Further, the GI50 with M14 was 8.47 µM (inactive); in the assay on MDA-N, 5.94 µM (inactive); in the assay with OVCAR-3 it was 3.79 µM (inactive); in the assay on OVCAR-4, 8.2 µM (inactive); in the assay on PC-3, 14.3 µM (inactive); in the assay on RPMI-8226, 2.18 µM (inactive). Further, the GI50 with SF-268 is 12.1 µM (inactive); with SF-295, 21.5 µM (inactive); in the assay with SK-MEL-2, 16.9 µM (inactive); in the assay with SK-MEL-5, 5.69 µM (inactive); in the assay on SR it was 2.19 µM (inactive); in the assay on T47D it was 1.84 µM (inactive). In the assay with UO-31, the GI50 was 3.54 µM (inactive).

Turning to `O=C1NC(O)CCN1C1CC(O)C(CO)O1` (stereo not drawn), the GI50 in the assay with 786-0 is > 100 µM (inactive); with CAKI-1 it was > 100 µM (inactive); with CCRF-CEM, > 100 µM (inactive); in the assay on IGROV-1, > 100 µM (inactive); with K562, > 100 µM (inactive); with KM12, 74.1 µM (inactive). Moreover, the GI50 with M14, in the assay on MDA-N, in the assay on OVCAR-3, with PC-3, with RPMI-8226 and in the assay on SF-268 was > 100 µM (inactive) in each case. For the same molecule, the GI50 in the assay with SF-295, in the assay with SK-MEL-2, with SK-MEL-5, with SR, in the assay on T47D and in the assay on UO-31 was > 100 µM (inactive) each time.

`COc1ccc(NC(C)=O)cc1N1C(=O)/C(=C\c2cc(OC)c(OC)c(OC)c2)SC1c1ccccc1` (stereo not drawn): the GI50 was 54 µM (inactive) with 786-0; 19 µM (inactive) with CAKI-1; 37 µM (inactive) in the assay on CCRF-CEM; 23.8 µM (inactive) in the assay on IGROV-1; 30.9 µM (inactive) in the assay on K562; 40.6 µM (inactive) in the assay on KM12. For the same molecule, the GI50 was 49.8 µM (inactive) in the assay with M14; 25.5 µM (inactive) in the assay with MDA-N; 36.1 µM (inactive) in the assay with OVCAR-3; 39 µM (inactive) in the assay with OVCAR-4; 31.5 µM (inactive) in the assay on PC-3; 17.4 µM (inactive) in the assay with RPMI-8226. Further, the GI50 is 52 µM (inactive) in the assay with SF-295; 57.9 µM (inactive) in the assay on SK-MEL-2; 33.7 µM (inactive) in the assay on SK-MEL-5; 27.8 µM (inactive) in the assay with SR; 33.5 µM (inactive) in the assay with T47D; 22.1 µM (inactive) in the assay with UO-31.

Consider `COc1cc(OC)cc(OCc2nc3cc(C(F)(F)F)ccc3nc2-c2ccccc2)c1`, for which the GI50 in the assay with 786-0 was > 100 µM (inactive); in the assay with CAKI-1, > 100 µM (inactive); in the assay on CCRF-CEM, > 100 µM (inactive); with IGROV-1, 0.809 µM (active); in the assay with K562, > 100 µM (inactive); in the assay with KM12, > 100 µM (inactive). The GI50 with M14, with MDA-N, in the assay with OVCAR-3, with OVCAR-4, with PC-3 and with RPMI-8226 was > 100 µM (inactive) each time. In addition, the GI50 is > 100 µM (inactive) in the assay with SF-268; > 100 µM (inactive) in the assay with SF-295; > 100 µM (inactive) in the assay with SK-MEL-2; > 100 µM (inactive) with SR; 48 µM (inactive) in the assay on T47D; > 100 µM (inactive) in the assay on UO-31.

In the case of `CCCOC(=O)NC(C)C(=O)NC(CCC(=O)NC(CCCC(N)C(=O)O)C(=O)NC(C)C(=O)O)C(=O)O` (stereo not drawn), the GI50 with 786-0 is 30.2 µM (inactive); in the assay on CAKI-1, 19.9 µM (inactive); in the assay with CCRF-CEM, 19.2 µM (inactive); with IGROV-1, 62.2 µM (inactive); in the assay on KM12, 14.4 µM (inactive); in the assay with M14, 18.3 µM (inactive). Also, the GI50 in the assay with MDA-N is 21.1 µM (inactive); with OVCAR-3 it was 80.9 µM (inactive); with OVCAR-4, 29.4 µM (inactive); in the assay on PC-3, 23.9 µM (inactive); with RPMI-8226, 12.3 µM (inactive); in the assay on SF-268, 16.7 µM (inactive). Further, the GI50 in the assay on SF-295 is 16.6 µM (inactive); in the assay with SK-MEL-2, 54.2 µM (inactive); in the assay on SK-MEL-5, 15.7 µM (inactive); with SR, 15.6 µM (inactive); with T47D, 18.3 µM (inactive); with UO-31, 41.8 µM (inactive).
